Columns and labels:
Type in all cases: in vivo
[1] = tested on: ORYZA SATIVA, L. TEBONNET; assay: Rice tolerance to post-transplant applications under flooded paddy conditions, ORYSAT (Rice, Tebonnet); settings: post-transplant rice, 3-4 weeks after treatment
Method: (§1) Results of herbicide evaluation are expressed on a rating scale (0-9). The scale is based upon a visual observation of plant stand, vigor, malformation, size, chlorosis and overall plant appearance as compared with a control.
The tolerance of transplanted rice to post-transplanted herbicide applications is determined as follows: two ten-day-old rice seedlings (CV. Tebonnet) are transplanted into a silt loam soil in 32 oz. plastic containers with a diameter of 10.5 cm and no drainage holes. After transplanting the containers are flooded and the water level is maintained at 1.5 to 3 cm above the soil surface. […] The treated containers are placed on greenhouse benches, watered such that the water level is maintained as stated above, and cared for according to normal greenhouse procedures. Three to four weeks after treatment the test is terminated and each container is examined and herbicidal effect rated according to the rating system provided in Example 40. The compounds evaluated are reported by compound number given in Example 40.
(§2) Plant species employed in this example are reported by header abbreviation, common name and scientific name.

[2] = tested on: CYPERUS SEROTINUS, ROTTB.; assay: Preemergence weed control under flooded paddy conditions, CYPSE (Flatsedge); settings: preemergence, 3-4 weeks after treatment
Method: as §1
(§3) Preemergence herbicidal activity under flooded paddy conditions is determined as follows: plant seeds or propagating organs are planted in the top 0.5 cm of silt loam soil in 32 oz. plastic containers with a diameter of 10.5 cm and no drainage holes. Water is added to these containers and maintained at 1.5 to 3 cm above the soil surface for the duration of the experiment. […] The treated containers are placed on greenhouse benches and cared for according to normal greenhouse procedures.- Three to four weeks after treatment the test is terminated and each container is examined and herbicidal effect rated according to the rating system provided in Example 40. The compounds evaluated are reported by compound number given in Example 40.
as §2

[3] = tested on: CHENOPODIUM ALBUM, L.; assay: Preemergence herbicidal evaluation, CHEAL (Lambsquarters, Common); settings: rated four to five weeks after treatment
Source text: as §1
The preemergence herbicidal activity of the test compounds of the present invention is exemplified by the following tests in which the seeds of a variety of monocotyledonous and dicotyledonous plants are separately mixed with potting soil and planted on top of approximately one inch of soil in separate pint cups. […] The treated cups are then placed on greenhouse benches, watered and cared for in accordance with conventional greenhouse procedures. From four to five weeks after treatment, the tests are terminated and each cup is examined and rated according to the rating system provided in Example 40.
The compounds evaluated are reported by compound number given in Example 40.

[4] = tested on: CYPERUS IRIA; assay: Preemergence weed control under flooded paddy conditions, CYPIR (Rice Flatsedge); settings: preemergence, 3-4 weeks after treatment
Method: as §1, §3, §2

[5] = tested on: […], PRESL.; assay: Preemergence weed control under flooded paddy conditions, MOOVA (Monochoria); settings: preemergence, 3-4 weeks after treatment
Method: as §1
Preemergence herbicidal activity under flooded paddy conditions is determined as follows: plant seeds or propagating organs are planted in the top 0.5 cm of silt loam soil in 32 oz. plastic containers with a diameter of 10.5 cm and no drainage holes. Water is added to these containers and maintained at 1.5 to 3 cm above the soil surface for the duration of the experiment. The test compounds are applied as aqueous/acetone mixtures 50/50 v/v pipetted directly into the flood water to give the equivalent of about 0.5, 0.25, 0.125 and 0.063 kg/ha of active ingredient. The treated containers are placed on greenhouse benches and cared for according to normal greenhouse procedures.- Three to four weeks after treatment the test is terminated and each container is examined and herbicidal effect rated according to the rating system provided in Example 40. The compounds evaluated are reported by compound number given in Example 40.
as §2

[6] = tested on: SAGITTARIA PYGMAEA, L.; assay: Preemergence weed control under flooded paddy conditions, SAGPY (Arrowhead (Pygmaea)); settings: preemergence, 3-4 weeks after treatment
Method: as §1, §3, §2

`COC(=O)Cn1c(=O)n(C)c(=O)n(-c2cc(Oc3c(Cl)cc(Cl)cc3Cl)ccc2[N+](=O)[O-])c1=O` [Compound 33, Methyl tetrahydro-3-methyl-5-[2-nitro-5-(2,4,6-trichlorophenoxy)phenyl]-2,4,6-trioxo-s-triazine-1(2H)-acetate] was tested, and the “Herbicidal effect rating, ORYSAT” value ([1]; 0.063 kg/ha) was 3.0, the “Herbicidal effect rating, ORYSAT” value ([1]; 0.125 kg/ha) was 3.0 and the “Herbicidal effect rating, ORYSAT” value ([1]; 0.250 kg/ha) was 3.0. For the same molecule, the “Herbicidal effect rating, ORYSAT” value ([1]; 0.500 kg/ha) was 4.0, the “Herbicidal effect rating, CYPSE” value ([2]; 0.063 kg/ha) was 0.0 and the “Herbicidal effect rating, CYPSE” value ([2]; 0.125 kg/ha) was 0.0. For the same molecule, the “Herbicidal effect rating, CYPSE” value ([2]; 0.250 kg/ha) was 0.0, the “Herbicidal effect rating, CYPSE” value ([2]; 0.500 kg/ha) was 0.0 and the CHEAL herbicidal rating ([3]; Rate 0.125 kg/ha) was 9.0. For the same molecule, the CHEAL herbicidal rating ([3]; Rate 0.250 kg/ha) was 9.0, the CHEAL herbicidal rating ([3]; Rate 0.500 kg/ha) was 9.0 and the “Herbicidal effect rating, CYPIR” value ([4]; 0.063 kg/ha) was 9.0. For the same molecule, the “Herbicidal effect rating, CYPIR” value ([4]; 0.125 kg/ha) was 9.0, the “Herbicidal effect rating, CYPIR” value ([4]; 0.250 kg/ha) was 9.0 and the “Herbicidal effect rating, CYPIR” value ([4]; 0.500 kg/ha) was 9.0. For the same molecule, the “Herbicidal effect rating, MOOVA” value ([5]; 0.063 kg/ha) was 9.0, the “Herbicidal effect rating, MOOVA” value ([5]; 0.125 kg/ha) was 9.0 and the “Herbicidal effect rating, MOOVA” value ([5]; 0.250 kg/ha) was 9.0. The “Herbicidal effect rating, MOOVA” value ([5]; 0.500 kg/ha) was 9.0, the “Herbicidal effect rating, SAGPY” value ([6]; 0.063 kg/ha) was 0.0 and the “Herbicidal effect rating, SAGPY” value ([6]; 0.125 kg/ha) was 0.0. The “Herbicidal effect rating, SAGPY” value ([6]; 0.250 kg/ha) was 0.0 and the “Herbicidal effect rating, SAGPY” value ([6]; 0.500 kg/ha) was 0.0.
